Data set [1] deals with ptc>dRet^MEN2B flies. In words: Drosophila ptc>dRetMEN2B viability assay. In kind it is in vivo. Conditions: for rescue of ptc>dRetMEN2B viability (pupae, adults), in words: oral administration, drug mixed into food. The text has this:
FIG. 1A. Suppression of Ret^MEN2B-induced developmental block and whole animal toxicity were scored based on number of embryos (n) that survived as pupae (x) and adults (y). Drugs were mixed into food and fed to flies starting at larval stages.
FIG. 1B. Percent viability of control or drug treated flies determined for pupae (x/n) and adults (y/n).
Described herein is a Drosophila MEN2B model in which an intracellular mutation in the Drosophila Ret ortholog (dRet) was targeted to the eye (Read, R. D. et al., Genetics, 2005. 171(3): p. 1057-81). […] The screen is conducted in developing drosophila embryos. Under normal circumstances, drosophila embryos pass through four developmental steps: embryo→larvae→pupae→adult. […] We calibrated the ptc>dRetMEN2B assay to permit 50% survival to pupariation and 0% survival to adulthood. Mutated forms of RET are believed to be causative in human thyroid cancers including multiple endocrine neoplasia types 2A and 2B (MEN2A and MEN2B). The screen identifies small molecules that (a) suppress the toxicity induced by oncogenic RET and (b) allow flies to develop to functional adults. […] 64(19): p. 7099-109; Sun, L. et al., J Med Chem, 2003. 46(7): p.

The subject of data set [2] is wild type flies. Description: Viability of drug treated wild-type flies. In kind it is in vivo, Drosophila. The source says: FIG. 4B. Decreased viability of wild type flies by AD58 was mitigated by co-administration of Sorafenib or AZD6244.
FIG. 15. Percent viability of control and drug treated wild-type flies (WT). The proportion of WT pupae and adults that survived from the total number of embryos (indicated in brackets below) are represented as column graphs. (Pupae left, Adults right)

The subject of data set [3] is ptc>dRet^MEN2B wing cells. Description: Wing-based assay for transformation and cell migration (ptc>dRetMEN2B). The format is in vivo, Drosophila. The text has this:
FIG. 4E. Quantification of ptc>dRet^MEN2B phenotypes. Invasion was established by scoring for single/groups of GFP-labeled cells that relocated away from the ptc boundary (FIG. 4C, asterisks). Basal migration was scored as indentation of the apical surface (see FIG. 2B, arrows). Proliferation was scored as significant widening of the ptc boundary. The number of wings analyzed under each condition is indicated in brackets.
We previously developed a wing-based assay for transformation and cell migration that we utilized to explore Ras- and Src-based tumorigenesis (Vidal, M., D. E. Larson, and R. L. Cagan, Dev Cell, 2006. 10(1): p. 33-44). In this assay, the ptc-GAL4 driver directed oncogene expression in a stripe along the anterior-posterior axis; oncogene-based transformation led to over-proliferation, epithelial-to-mesenchymal transition (EMT), and cell migration away from the ptc domain.

The subject of data set [4] is 765>dRet^MEN2B wings (Ras/Erk pathway activity). Description: Adult wing vein pattern assay (765>dRetMEN2B). In kind it is in vivo, Drosophila. As to conditions: drug fed flies. The text has this: The adult Drosophila wing consists of a stereotypical pattern of […] and two cross-veins; increased Ras/Erk pathway activity leads to ectopic veins (e.g., Refs. (Sawamoto, K. et al., Dev Biol, 1996. 178(1): p. 13-22; Guichard, A. et al., Development, 1999. 126(12): p. 2663-76)). Expression of oncogenic dRet throughout the developing wing (765>dRet^MEN2B) led to disruption of the overall adult wing pattern including ectopic wing veins (FIG. 3D). Reducing gene dosage of the erk ortholog rolled (765>dRet^MEN2B erk−/+) suppressed these phenotypes (FIG. 3D), confirming that wing vein formation is dependent on Ras/Erk activity.

The target of data set [5] is B-Raf (Homo sapiens, UniProt P15056). In words: In vitro kinase assay, B-Raf. The format is biochemical. Conditions: in vitro kinase profile, 1 μM. The protocol:
(§1) Using in vitro kinase assays we tested AD57, AD36, and AD58 at 1 μM for activity against approximately one-half of the human kinome (FIG. 1E): 165 Ser/Thr kinases, 91 Tyr kinases, and 10 PI kinases were assayed, totaling 266 kinases (244 distinct kinases plus 22 mutant isoforms; see FIG. 6A-6C, FIG. 7A-7F, and FIG. 8 for measured inhibition values).
(§2) At least three major pathways are required for dRet^MEN2B-mediated transformation: Ras, Src, and glucose metabolism/PI3K (FIG. 3A; Ref (Read, R. D. et al., Genetics, 2005. 171(3): p. 1057-81)). We utilized in vitro kinase assays to assess compound activity against relevant kinases from each of these pathways, specifically Ret, B-Raf, Src, Tor, and S6K (FIG. 3B).

Data set [6] has as its target Src (Homo sapiens, UniProt P12931). In words: In vitro kinase assay, Src. As to conditions: in vitro kinase profile, 1 μM. The format is biochemical. The protocol:
as §1, §2

The target of data set [7] is S6K (Homo sapiens, UniProt P23443). In words: In vitro kinase assay, S6K. Conditions: in vitro kinase profile, 1 μM. The format is biochemical. The procedure: as §1, §2
The target of data set [8] is mTor (Homo sapiens, UniProt P42345). Description: In vitro kinase assay, mTor. In kind it is biochemical. Conditions: in vitro kinase profile, 1 μM. The procedure: as §1, §2
Data set [9] relates to MEN2B (MZ) thyroid cancer cells. Description: Immunoblot analysis of drug-treated MZ cells. The format is cell-based, human. Conditions: 1 hour of treatment. The procedure:
(§3) FIG. 19. […] MEN2A (TT) and MEN2B (MZ) thyroid cancer cells were treated with the indicated drugs for 3 days at a final concentration of 2 μM. Cell lystates were immunoblotted for protein markers of apoptosis. Vandetanib (vand.) was included for comparison.
(§4) FIG. 20A-20B. […] FIG. 20A. MEN2B (MZ) and FIG. 20B. MEN2A (TT) thyroid cancer cells were treated with the indicated concentrations of drug. Following 1 hour of treatment, cells were harvested and lysates prepared for immunoblotting to detect the indicated proteins. VD=vandetanib; SF=sorafenib.

Data set [10] has as its system MEN2A (TT) thyroid cancer cells. Description: Immunoblot analysis of drug-treated TT cells. The format is cell-based, human. Conditions: 1 hour of treatment. The procedure: as §3, §4
Data set [11] has as its system TT cell tumors in athymic nu/nu mice. Description: MEN2 (TT) mouse xenograft model. The format is in vivo. Conditions: nude mice transplanted with TT cells; oral gavage; median per group. The protocol: FIG. 11. […] TT thyroid cancer cells were implanted into athymic nu/nu mice subcutaneously into the right flank under the conditions listed. Upon establishment of tumors, drugs were administered by oral gavage (5 days ON/2 days OFF schedule). Tumors were measured using digital calipers. […] VD=vandetanib.
FIG. 18A-18D. […] FIG. 18A. MEN2B (MZ) thyroid cancer cells were treated with the indicated concentrations of each inhibitor (7 days) and cell viability was quantitated by MTT assay. FIG. 18B. MEN2A (TT) thyroid cancer cells were treated with the indicated concentrations of each inhibitor (7 days) and cell viability was quantitated by MTT assay. FIG. 18C. […] Change in tumor volume was calculated per mouse. Values shown are the median percent change per group. 20 and 10 animals for vehicle and drug treated mice, respectively, were analyzed. FIG. 18D. Body weight measurements of AD80, Vandetanib (VD) and vehicle treated nude mice transplanted with TT cells. Values shown are the median of 20 and 10 animals for vehicle and drug treated mice, respectively.
TT-based tumors were grown for 46 days in athymic nu/nu male mice prior to drug administration.

For data set [12], the target named is T1, Ret kinase domain (Homo sapiens, UniProt P07949).
T1 construct: determined against a purified form of the Ret kinase domain
T1 sequence (P07949 724-1016 limits assumed): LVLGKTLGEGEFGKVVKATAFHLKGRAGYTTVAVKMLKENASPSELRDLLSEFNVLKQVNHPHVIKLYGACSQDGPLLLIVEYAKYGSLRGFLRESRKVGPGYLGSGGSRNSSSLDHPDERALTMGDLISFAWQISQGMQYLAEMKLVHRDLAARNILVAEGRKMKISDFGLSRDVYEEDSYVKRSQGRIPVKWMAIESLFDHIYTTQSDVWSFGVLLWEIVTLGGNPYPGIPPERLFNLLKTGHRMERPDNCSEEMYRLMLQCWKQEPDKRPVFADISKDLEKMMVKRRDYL
Description: In vitro kinase assay, Ret. The format is biochemical. As to conditions: in vitro kinase profile, 1 μM. The procedure: FIG. 1D. […] Half maximal inhibitory concentrations (IC50) were determined against a purified form of the Ret kinase domain.
as §1, §2

Data set [13] concerns MZ-CRC-1 (MEN2B) cancer cell line. In words: MZ-CRC-1 cell viability (MTT assay). In kind it is cell-based, human.

The values that follow come from patent publication US9321772B2, “Substituted pyrazolo[3,4-D]pyrimidines and uses thereof” (The Regents of the University of California, priority 2011, dated 2016).

Entries after “also recorded” stand apart in the source; their conditions may differ.

B-Raf, sequence (P15056 whole entry, canonical isoform): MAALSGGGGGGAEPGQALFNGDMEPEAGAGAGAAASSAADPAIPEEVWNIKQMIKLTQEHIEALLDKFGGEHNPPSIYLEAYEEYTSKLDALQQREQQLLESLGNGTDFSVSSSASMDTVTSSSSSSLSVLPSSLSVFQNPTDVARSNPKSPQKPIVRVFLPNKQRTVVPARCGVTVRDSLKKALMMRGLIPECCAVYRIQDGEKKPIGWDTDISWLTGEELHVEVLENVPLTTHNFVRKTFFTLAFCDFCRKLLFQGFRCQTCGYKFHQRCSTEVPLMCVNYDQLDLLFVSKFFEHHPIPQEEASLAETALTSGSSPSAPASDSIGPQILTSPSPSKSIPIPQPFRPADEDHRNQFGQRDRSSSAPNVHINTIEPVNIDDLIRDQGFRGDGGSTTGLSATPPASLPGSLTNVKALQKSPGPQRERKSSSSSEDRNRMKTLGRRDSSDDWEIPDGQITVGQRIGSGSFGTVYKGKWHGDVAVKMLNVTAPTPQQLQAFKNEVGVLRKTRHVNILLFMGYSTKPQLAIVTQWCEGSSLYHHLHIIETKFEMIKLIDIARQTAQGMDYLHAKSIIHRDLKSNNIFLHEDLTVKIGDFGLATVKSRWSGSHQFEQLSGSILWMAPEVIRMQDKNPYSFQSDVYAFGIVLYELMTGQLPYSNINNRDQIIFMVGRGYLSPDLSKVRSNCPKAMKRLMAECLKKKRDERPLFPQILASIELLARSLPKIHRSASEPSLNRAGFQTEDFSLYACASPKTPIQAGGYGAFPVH
Src, sequence (P12931 whole entry): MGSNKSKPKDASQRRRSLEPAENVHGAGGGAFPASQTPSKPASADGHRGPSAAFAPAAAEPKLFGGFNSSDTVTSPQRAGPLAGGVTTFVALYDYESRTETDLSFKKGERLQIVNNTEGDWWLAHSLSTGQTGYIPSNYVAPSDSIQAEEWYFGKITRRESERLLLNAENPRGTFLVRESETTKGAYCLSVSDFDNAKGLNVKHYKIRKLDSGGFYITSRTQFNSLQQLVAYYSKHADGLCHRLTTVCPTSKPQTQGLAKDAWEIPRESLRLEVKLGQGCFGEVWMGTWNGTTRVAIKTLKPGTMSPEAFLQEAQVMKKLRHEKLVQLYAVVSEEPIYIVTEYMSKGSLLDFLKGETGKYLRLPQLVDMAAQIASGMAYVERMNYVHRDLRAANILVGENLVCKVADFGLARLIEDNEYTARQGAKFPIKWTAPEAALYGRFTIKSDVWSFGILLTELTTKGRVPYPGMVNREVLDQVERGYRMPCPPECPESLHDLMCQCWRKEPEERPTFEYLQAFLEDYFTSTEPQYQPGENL
S6K, sequence (P23443 whole entry): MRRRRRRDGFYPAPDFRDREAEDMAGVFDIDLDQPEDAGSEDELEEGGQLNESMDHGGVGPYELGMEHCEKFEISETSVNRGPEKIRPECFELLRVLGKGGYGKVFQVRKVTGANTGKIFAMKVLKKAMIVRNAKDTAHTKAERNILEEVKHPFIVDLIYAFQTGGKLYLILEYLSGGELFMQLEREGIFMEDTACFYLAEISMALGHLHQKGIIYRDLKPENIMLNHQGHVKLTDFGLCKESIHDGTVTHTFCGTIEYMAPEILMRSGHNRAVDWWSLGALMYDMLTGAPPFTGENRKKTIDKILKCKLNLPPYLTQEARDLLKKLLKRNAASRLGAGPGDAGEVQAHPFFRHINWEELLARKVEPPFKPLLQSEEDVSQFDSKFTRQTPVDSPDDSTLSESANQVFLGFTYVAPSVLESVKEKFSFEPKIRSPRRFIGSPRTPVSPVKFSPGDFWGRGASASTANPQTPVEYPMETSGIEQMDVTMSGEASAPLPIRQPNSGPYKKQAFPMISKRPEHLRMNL

In the case of `CC(C)n1nc(-c2ccc(NC(=O)Nc3ccccc3)cc2)c2c(N)ncnc21` [AD58], in data set [1], the “rescue of ptc>dRetMEN2B viability (pupae, adults), in words” value (“rescue of ptc>dRetMEN2B viability” below) is recorded as “significant toxicity without detectable efficacy”. In addition, the “effect of reducing dTor on drug efficacy/toxicity” value in [1] (ptc>dRetMEN2B dTor-/+) is reported as “enhanced the toxicity”. Also, the “effect of reducing erk gene dosage on drug efficacy in viability assay” value in data set [1] (ptc>dRetMEN2B, erk-/+) is listed as “considerably enhanced the efficacy”. Besides, the whole animal toxicity result in [2] (fed to ptc>dRetMEN2B and wild type flies) was “significant whole animal toxicity”. For the same compound, the “invasion and migration of dRetMEN2B-transformed cells” value in data set [3] (co-treatment AD58 plus Sorafenib) was “significant suppression of invasion and migration; also recorded: blocked”. In [3] (oral administration), the “basal phospho-Src in wing epithelium” value is listed as “prevented basal phospho-Src accumulation”; the “suppression of dRetMEN2B-induced proliferation, EMT, invasion/basal migration” value (from here on “suppression … invasion/basal migration”) was “failed to prevent invasion/basal migration and not and did not suppress migration”. Moreover, the “ectopic wing vein / wing pattern phenotype” value in [4] is listed as “slightly but consistently enhanced”. The “B-Raf (Raf) inhibition, in words” value in data set [5] was “much weaker inhibitor”. Also, the “Src inhibition, in words” value in [6] is listed as “strongly inhibited”. The “S6K inhibition, in words” value in [7] is “much weaker inhibitor”. Besides, the “mTor inhibition, in words” value in [8] was “more potent; also recorded: stronger inhibitor”. Also, in [9], the “phospho-Ret and downstream biomarkers” value was “potent inhibitors”. The “phospho-Ret and downstream biomarkers” value in data set [10] is reported as “potent inhibitors”.
Consider `CNC(=O)c1cc(Oc2ccc(NC(=O)Nc3ccc(Cl)c(C(F)(F)F)c3)cc2)ccn1` [Sorafenib, reference compound], for which the “notum, scutellum and cuticle defects of ptc>dRetMEN2B adults” value in data set [1] (drug fed flies) is “weakly suppressed; also recorded: some cuticle defects”. In data set [1], the “rescue of ptc>dRetMEN2B viability” value is on record as “stronger; also recorded: rescued some animals to adulthood but did not significantly increase the proportion that developed to pupariation”. Besides, in [2] (co-feeding with AD58), the “AD58-mediated toxicity in wild type flies on co-feeding with the named drug” value is “almost completely suppressed”. The “suppression … invasion/basal migration” value in data set [3] (oral administration) is “measurable rescue that was nonetheless less than AD57; also recorded: did not suppress migration”.
With `COc1cc2c(Nc3ccc(Br)cc3F)ncnc2cc1OCC1CCN(C)CC1` [Vandetanib, reference compound], the “reduction of tumor progression relative to vehicle” value in data set [11] is listed as 1.9 fold.
Regarding `Cn1cnc2c(F)c(Nc3ccc(Br)cc3Cl)c(C(=O)NOCCO)cc21` [AZD6244, reference compound], the “rescue of ptc>dRetMEN2B viability” value in [1] is “did not rescue viability”. For the same compound, in [2] (in vivo), the “AD58-mediated toxicity in wild type flies on co-feeding with the named drug” value is reported as “almost completely suppressed”.
In the case of `CC(C)n1nc(-c2ccc(NC(=O)Nc3ccc(Cl)c(C(F)(F)F)c3)cc2)c2c(N)ncnc21` [AD81], in [1], the “rescue of ptc>dRetMEN2B viability” value is “improved rescue relative to AD57”. In addition, the “suppression … invasion/basal migration” value in data set [3] (oral administration) is reported as “significantly improved suppression”. In addition, the “Ret inhibition, in words” value in data set [12] is “inhibited”. In addition, the “B-Raf (Raf) inhibition, in words” value in data set [5] is reported as “inhibited”. Besides, in data set [6], the “Src inhibition, in words” value is “inhibited”. Also, the “S6K inhibition, in words” value in data set [7] is “inhibited”. Also, in data set [8], the “mTor inhibition, in words” value was “not and greatly reduced mTor activity and lack significant inhibitory activity”.
Consider `Nc1ncnc2c1c(-c1cnc3[nH]ccc3c1)nn2C1CCCC1` [PP121, reference compound], for which the “suppression … invasion/basal migration” value in data set [3] (oral administration) was “limited ability to significantly rescue the transformation phenotype and not”. The “inhibition of MZ-CRC-1 cell viability / proliferation, in words” value in data set [13] is “levels approaching AD57”.
